Results from patent publication US20210038607A1, “OXADIAZOLYLTHIOPHENE DERIVATIVES USEFUL AS HISTONE DEACETYLASE INHIBITORS” (Karus Therapeutics Limited, priority 2018, published 2021).
Where two headings read alike, the source gives them in different places.

Legend:
[1] = target: T1, Human HDAC9 (Homo sapiens, UniProt Q9UKV0); test: HDAC9 biochemical assay, class IIa-specific substrate; conditions: read-out: HDAC Isoform IC50 (nM) 9
T1 construct: amino acids 604-1066 with C-terminal His tag; His (C); host or cells: baculovirus expression system
In short: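 HDAC9 residues 604-1066 (C-terminal His tag, baculovirus-expressed) at 0.06 ng/ul with 50 μM class IIa substrate Boc-Lys(trifluoroacetyl)-AMC in Tris-HCl pH 8.0 buffer with BSA and 1% DMSO. 30 min at room temperature, then developer added; fluorescence read at 360/460 nm Ex/Em.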

[2] = target: T2, Human HDAC4 (Homo sapiens, UniProt P56524); test: HDAC4 biochemical assay, class IIa-specific substrate; conditions: read-out: HDAC Isoform IC50 (nM) 4
T2 construct: amino acids 627-1085 with N-terminal GST tag; GST (N); host or cells: baculovirus expression system
In short: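 Two-step fluorogenic read-out: deacetylated BOC-Lys(trifluoroacetyl)-AMC (50 μM) was digested by developer and measured at Ex/Em 360/460. Deacetylation by 0.004 ng/ul HDAC4 (aa 627-1085, N-terminal GST) ran 30 min at room temperature, pH 8.0 Tris buffer, 1 mg/mL BSA, 1% DMSO.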

[3] = target: T3, Recombinant human HDAC6 (Homo sapiens, UniProt Q9UBN7); test: HDAC6 biochemical assay, AMC-labeled peptide substrate
T3 construct: full length, MW=159 kDa; GST (N); host or cells: Sf9 insect cells (baculovirus)
T3 sequence (Q9UBN7 1-1215): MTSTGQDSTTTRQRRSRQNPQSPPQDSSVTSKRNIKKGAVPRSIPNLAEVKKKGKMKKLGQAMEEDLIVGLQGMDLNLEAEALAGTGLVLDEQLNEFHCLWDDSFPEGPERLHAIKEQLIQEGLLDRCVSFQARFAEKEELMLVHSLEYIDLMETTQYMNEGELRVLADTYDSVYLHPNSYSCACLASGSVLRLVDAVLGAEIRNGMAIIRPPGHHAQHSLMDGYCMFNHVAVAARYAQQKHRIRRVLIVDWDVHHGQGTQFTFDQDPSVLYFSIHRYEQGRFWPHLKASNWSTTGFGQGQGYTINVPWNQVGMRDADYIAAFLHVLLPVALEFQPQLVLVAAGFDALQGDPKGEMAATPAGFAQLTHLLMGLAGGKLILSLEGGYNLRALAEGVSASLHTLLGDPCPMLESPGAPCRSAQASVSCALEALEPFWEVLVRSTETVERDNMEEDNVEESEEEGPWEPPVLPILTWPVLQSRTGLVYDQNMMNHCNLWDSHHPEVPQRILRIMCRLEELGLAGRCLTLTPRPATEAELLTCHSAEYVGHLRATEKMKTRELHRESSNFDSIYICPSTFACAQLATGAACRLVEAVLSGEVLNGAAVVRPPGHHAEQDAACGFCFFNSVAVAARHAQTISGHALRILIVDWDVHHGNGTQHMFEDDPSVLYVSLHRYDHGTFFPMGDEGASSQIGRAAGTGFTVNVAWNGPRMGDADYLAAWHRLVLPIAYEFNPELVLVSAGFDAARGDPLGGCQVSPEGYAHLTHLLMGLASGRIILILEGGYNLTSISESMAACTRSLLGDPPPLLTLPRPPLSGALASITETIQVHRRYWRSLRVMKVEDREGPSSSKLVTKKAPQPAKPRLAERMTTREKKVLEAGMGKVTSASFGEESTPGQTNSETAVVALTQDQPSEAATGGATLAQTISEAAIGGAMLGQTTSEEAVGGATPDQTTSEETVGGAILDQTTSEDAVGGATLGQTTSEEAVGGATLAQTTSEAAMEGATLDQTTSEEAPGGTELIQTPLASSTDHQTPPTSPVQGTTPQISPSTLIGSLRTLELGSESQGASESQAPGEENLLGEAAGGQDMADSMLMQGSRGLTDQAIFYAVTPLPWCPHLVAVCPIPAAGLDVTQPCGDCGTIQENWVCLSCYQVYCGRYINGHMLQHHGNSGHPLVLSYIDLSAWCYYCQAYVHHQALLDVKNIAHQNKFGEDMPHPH
In short: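 Two-step fluorogenic read-out: enzyme deacetylates 50 μM RHKK(Ac)AMC for 1 h at 30° C in pH 8.0 Tris buffer with BSA and 1% DMSO, then developer cleavage gives signal at Ex 360/Em 460. Enzyme: 0.3 ng/ul recombinant full-length human HDAC6, GST-tagged, Sf9-expressed.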

[4] = HDAC6, read-out: HDAC Isoform IC50 (nM) 6

T2 sequence (P56524 627-1084 limits assumed): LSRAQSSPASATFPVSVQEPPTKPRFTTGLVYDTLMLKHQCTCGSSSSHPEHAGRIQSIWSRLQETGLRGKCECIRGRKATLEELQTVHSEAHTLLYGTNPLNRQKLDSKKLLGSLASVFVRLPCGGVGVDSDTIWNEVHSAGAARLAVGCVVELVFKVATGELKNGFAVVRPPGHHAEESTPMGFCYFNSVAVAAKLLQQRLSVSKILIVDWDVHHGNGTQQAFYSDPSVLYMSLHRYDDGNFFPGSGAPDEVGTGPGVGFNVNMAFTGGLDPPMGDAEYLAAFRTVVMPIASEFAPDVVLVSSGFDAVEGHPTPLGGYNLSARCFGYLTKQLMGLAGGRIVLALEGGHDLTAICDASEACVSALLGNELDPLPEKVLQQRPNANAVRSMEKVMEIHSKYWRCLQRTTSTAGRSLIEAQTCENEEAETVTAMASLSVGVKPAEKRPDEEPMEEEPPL
T1 sequence (Q9UKV0 604-1066 isoform Q9UKV0-5): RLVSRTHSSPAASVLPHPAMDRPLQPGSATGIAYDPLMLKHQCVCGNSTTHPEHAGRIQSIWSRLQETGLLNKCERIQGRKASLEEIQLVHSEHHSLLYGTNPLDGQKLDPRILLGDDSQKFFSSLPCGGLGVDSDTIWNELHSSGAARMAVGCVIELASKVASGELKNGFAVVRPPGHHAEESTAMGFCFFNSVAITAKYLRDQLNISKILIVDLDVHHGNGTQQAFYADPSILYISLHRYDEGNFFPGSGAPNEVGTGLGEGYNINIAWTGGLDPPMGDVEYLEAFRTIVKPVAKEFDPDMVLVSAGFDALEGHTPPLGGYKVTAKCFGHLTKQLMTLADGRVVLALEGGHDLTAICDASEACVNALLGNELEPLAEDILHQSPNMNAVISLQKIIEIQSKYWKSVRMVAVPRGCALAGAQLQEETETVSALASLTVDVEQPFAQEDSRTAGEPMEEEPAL

FC(F)(F)c1nc(-c2ccc(CN(c3cnccn3)c3cnccn3)s2)no1 [Example BA, N-(Pyrazin-2-yl)-N-({5-[5-(trifluoromethyl)-1,2,4-oxadiazol-3-yl]thiophen-2-yl}methyl)pyrazin-2-amine]
IC50 [1]: ≤ 10000 nM | IC50 [2]: ≤ 1000 nM | IC50 [3, 4]: ≤ 500 nM

O=C(c1ccc(N(Cc2ccc(-c3noc(C(F)(F)F)n3)s2)c2cnccn2)nn1)N1CCC1 [Example FF, 6-(Azetidine-1-carbonyl)-N-(pyrazin-2-yl)-N-({5-[5-(trifluoromethyl)-1,2,4-oxadiazol-3-yl]thiophen-2-yl}methyl)pyridazin-3-amine]
IC50 [1]: ≤ 1000 nM | IC50 [2]: ≤ 500 nM | IC50 [3, 4]: ≤ 500 nM

O=C(c1cnnc(N(Cc2ccc(-c3noc(C(F)(F)F)n3)s2)c2cnccn2)c1)N1CC2CCC(C1)O2 [Example GA, 5-{8-Oxa-3-azabicyclo[3.2.1]octane-3-carbonyl}-N-(pyrazin-2-yl)-N-({5-[5-(trifluoromethyl)-1,2,4-oxadiazol-3-yl]thiophen-2-yl}methyl)pyridazin-3-amine]
IC50 [1]: ≤ 10000 nM | IC50 [2]: ≤ 10000 nM | IC50 [3, 4]: ≤ 500 nM

FC(F)(F)c1nc(-c2ccc(CN(c3cnccn3)c3cc(N4CCCC4)cnn3)s2)no1 [Example FQ, N-(Pyrazin-2-yl)-5-(pyrrolidin-1-yl)-N-({5-[5-(trifluoromethyl)-1,2,4-oxadiazol-3-yl]thiophen-2-yl}methyl)pyridazin-3-amine]
IC50 [1]: ≤ 10000 nM | IC50 [2]: ≤ 10000 nM | IC50 [3, 4]: ≤ 1000 nM

Cc1cncc(N(Cc2ccc(-c3noc(C(F)(F)F)n3)s2)c2cnccn2)n1 [Example BP, 6-Methyl-N-(pyrazin-2-yl)-N-({5-[5-(trifluoromethyl)-1,2,4-oxadiazol-3-yl]thiophen-2-yl}methyl)pyrazin-2-amine]
IC50 [1]: ≤ 10000 nM | IC50 [2]: ≤ 1000 nM | IC50 [3, 4]: ≤ 500 nM

O=C(c1cnnc(N(Cc2ccc(-c3noc(C(F)(F)F)n3)s2)c2cnccn2)c1)N1CCC(F)(F)CC1 [Example FY, 5-(4,4-Difluoropiperidine-1-carbonyl)-N-(pyrazin-2-yl)-N-({5-[5-(trifluoromethyl)-1,2,4-oxadiazol-3-yl]thiophen-2-yl}methyl)pyridazin-3-amine]
IC50 [1]: ≤ 10000 nM | IC50 [2]: ≤ 10000 nM | IC50 [3, 4]: ≤ 500 nM

O=C(c1cnnc(N(Cc2ccc(-c3noc(C(F)(F)F)n3)s2)c2cnccn2)c1)N1CCC1 [Example FS, 5-(Azetidine-1-carbonyl)-N-(pyrazin-2-yl)-N-({5-[5-(trifluoromethyl)-1,2,4-oxadiazol-3-yl]thiophen-2-yl}methyl)pyridazin-3-amine]
IC50 [1]: ≤ 10000 nM | IC50 [2]: ≤ 10000 nM | IC50 [3, 4]: ≤ 500 nM

O=C(O)c1cnnc(N(Cc2ccc(-c3noc(C(F)(F)F)n3)s2)c2cnccn2)c1 [Example DW, 6-[(Pyrazin-2-yl)({5-[5-(trifluoromethyl)-1,2,4-oxadiazol-3-yl]thiophen-2-yl}methyl)amino]pyridazine-4-carboxylic acid]
IC50 [1]: ≤ 10000 nM | IC50 [2]: ≤ 10000 nM | IC50 [3, 4]: ≤ 500 nM

NC(=O)c1ccc(N(Cc2ccc(-c3noc(C(F)(F)F)n3)s2)c2cnccn2)nn1 [Example DQ, 6-[(Pyrazin-2-yl)({5-[5-(trifluoromethyl)-1,2,4-oxadiazol-3-yl]thiophen-2-yl}methyl)amino]pyridazine-3-carboxamide]
IC50 [1]: ≤ 1000 nM | IC50 [2]: ≤ 500 nM | IC50 [3, 4]: ≤ 500 nM

O=C(c1cnnc(N(Cc2ccc(-c3noc(C(F)(F)F)n3)s2)c2cnccn2)c1)N1CC2(COC2)C1 [Example FZ, 5-{2-Oxa-6-azaspiro[3.3]heptane-6-carbonyl}-N-(pyrazin-2-yl)-N-({5-[5-(trifluoromethyl)-1,2,4-oxadiazol-3-yl]thiophen-2-yl}methyl)pyridazin-3-amine]
IC50 [1]: ≤ 10000 nM | IC50 [2]: ≤ 10000 nM | IC50 [3, 4]: ≤ 500 nM

CC(F)(F)c1cnnc(N(Cc2ccc(-c3noc(C(F)(F)F)n3)s2)c2cnccn2)c1 [Example GU, 5-(1,1-Difluoroethyl)-N-(pyrazin-2-yl)-N-({5-[5-(trifluoromethyl)-1,2,4-oxadiazol-3-yl]thiophen-2-yl}methyl)pyridazin-3-amine]
IC50 [1]: ≤ 10000 nM | IC50 [2]: ≤ 10000 nM | IC50 [3, 4]: ≤ 500 nM

O=C(c1ccc(N(Cc2ccc(-c3noc(C(F)(F)F)n3)s2)c2cnccn2)nn1)N1CC[S+]([O-])CC1 [Example FD, 4-{6-[(Pyrazin-2-yl)({5-[5-(trifluoromethyl)-1,2,4-oxadiazol-3-yl]thiophen-2-yl}methyl)amino]pyridazine-3-carbonyl}-1lambda4-thiomorpholin-1-one]
IC50 [1]: ≤ 10000 nM | IC50 [2]: ≤ 500 nM | IC50 [3, 4]: ≤ 500 nM

FC(F)(F)c1nc(-c2ccc(CN(c3cnccn3)c3cc(CN4CCCC4)ccn3)s2)no1 [Example GG, N-{4-[(Pyrrolidin-1-yl)methyl]pyridin-2-yl}-N-({5-[5-(trifluoromethyl)-1,2,4-oxadiazol-3-yl]thiophen-2-yl}methyl)pyrazin-2-amine]
IC50 [1]: ≤ 10000 nM | IC50 [2]: ≤ 1000 nM | IC50 [3, 4]: ≤ 1000 nM

O=C(c1ccc(N(Cc2ccc(-c3noc(C(F)(F)F)n3)s2)c2cnccn2)nn1)N1CCC12COC2 [Example FH, 6-{6-Oxa-1-azaspiro[3.3]heptane-1-carbonyl}-N-(pyrazin-2-yl)-N-({5-[5-(trifluoromethyl)-1,2,4-oxadiazol-3-yl]thiophen-2-yl}methyl)pyridazin-3-amine]
IC50 [1]: ≤ 1000 nM | IC50 [2]: ≤ 500 nM | IC50 [3, 4]: ≤ 500 nM

O=C(c1cnnc(N(Cc2ccc(-c3noc(C(F)(F)F)n3)s2)c2cnccn2)c1)N1CCOCC1 [Example EB, 5-(Morpholine-4-carbonyl)-N-(pyrazin-2-yl)-N-({5-[5-(trifluoromethyl)-1,2,4-oxadiazol-3-yl]thiophen-2-yl}methyl)pyridazin-3-amine]
IC50 [1]: ≤ 10000 nM | IC50 [2]: ≤ 10000 nM | IC50 [3, 4]: ≤ 500 nM | IC50 ([3]; With assay conditions in the experimental section described herein, read-out: HDAC6 IC50): 99.1 nM

FC(F)(F)c1cncc(N(Cc2ccc(-c3noc(C(F)(F)F)n3)s2)c2cnccn2)n1 [Example BR, N-(Pyrazin-2-yl)-6-(trifluoromethyl)-N-({5-[5-(trifluoromethyl)-1,2,4-oxadiazol-3-yl]thiophen-2-yl}methyl)pyrazin-2-amine]
IC50 [1]: ≤ 10000 nM | IC50 [2]: ≤ 10000 nM | IC50 [3, 4]: ≤ 10000 nM

COc1nccnc1N(Cc1ccc(-c2noc(C(F)(F)F)n2)s1)c1cnccn1 [Example BF, 3-Methoxy-N-(pyrazin-2-yl)-N-({5-[5-(trifluoromethyl)-1,2,4-oxadiazol-3-yl]thiophen-2-yl}methyl)pyrazin-2-amine]
IC50 [1]: ≤ 10000 nM | IC50 [2]: ≤ 10000 nM | IC50 [3, 4]: ≤ 10000 nM

O=C(c1cnnc(N(Cc2ccc(-c3noc(C(F)(F)F)n3)s2)c2cnccn2)c1)N1C2CCC1COC2 [Example GB, 5-{3-Oxa-8-azabicyclo[3.2.1]octane-8-carbonyl}-N-(pyrazin-2-yl)-N-({5-[5-(trifluoromethyl)-1,2,4-oxadiazol-3-yl]thiophen-2-yl}methyl)pyridazin-3-amine]
IC50 [1]: ≤ 10000 nM | IC50 [2]: ≤ 10000 nM | IC50 [3, 4]: ≤ 500 nM
